In patent US20250197393A1, “INTEGRIN INHIBITOR AND USES THEREOF” (Pliant Therapeutics, Inc., priority 2023, published 2025):
≈ marks a conversion by molar mass, not a printed value.

Tests used:
Format in all cases: physicochemical
[1] = Hygroscopicity by dynamic vapor sorption (DVS)
Protocol: Dynamic vapor sorption of Pattern A was studied using a Surface Measurement Systems (SMS) Intrinsic instrument. Total gas flow was 200 sccm. The oven temperature was 25° C. Water was used as the solvent, in a cycle of 40-95-0-95-40% RH. The stage step was 10% RH and equilibrium was within 0.002 dm/dt (%/min) (minimum dm/dt stability duration: 60 min; maximum dm/dt stage time: 360 min). The sample mass was about 5-50 mg.
The water sorption and desorption behavior of (S)-4-((2-methoxyethyl)(4-(5,6,7,8-tetrahydro-1,8-naphthyridin-2-yl)butyl)amino)-2-(quinazolin-4-ylamino)butanoic acid L-tartaric acid cocrystal Pattern A was investigated by DVS at 25° C. with a cycle of 40-95-0-95-40% RH. XRPD was measured after the DVS test to determine form change. […] It dehydrated in 10% RH and below.

[2] = Solubility at 37° C. in aqueous and biorelevant media; settings: for solubility at 2 h / solubility at 24 h: 37 °C, thermodynamic from solid; for solubility at 2 h / solubility at 24 h / Solubility (mg/ mL) 2 h / Solubility (mg/ mL) 24 h: target 250 mg/mL (in free form); for pH of supernatant at 24 h / Solubility (mg/ mL) 2 h / Solubility (mg/ mL) 24 h: listed as L-Tartaric acid cocrystal Pattern A, hydrate
Protocol: To prepare the samples of (S)-4-((2-methoxyethyl)(4-(5,6,7,8-tetrahydro-1,8-naphthyridin-2-yl)butyl)amino)-2-(quinazolin-4-ylamino)butanoic acid L-tartaric acid cocrystal Pattern A, 80.6 mg was weighed into a 2 mL glass vial. Next, 0.18 mL of solubility medium was added. The salt amount used is equivalent to 45 mg of the amorphous free form. Obtained suspensions/solutions were stirred at 37° C. at 400 rpm and sampled at 2 h and at 24 h. The samples were centrifuged at 37° C. at 14,000 rpm for 5 min. Supernatants were analyzed by HPLC and pH meter for solubility and pH value, respectively. […]

[3] = Compression study; settings: 5 minutes; for XRPD after compression: hydraulic press
Protocol: (§1) About 20 mg of (S)-4-((2-methoxyethyl)(4-(5,6,7,8-tetrahydro-1,8-naphthyridin-2-yl)butyl)amino)-2-(quinazolin-4-ylamino)butanoic acid L-tartaric acid cocrystal Pattern A was compressed for 5 minutes under 2 MPa, 5 MPa and 10 MPa with a hydraulic press. Potential form change and degree of crystallinity were evaluated by XRPD.

[4] = Bulk stability of solid under temperature/humidity stress (HPLC, appearance, XRPD); settings: for purity decrease: listed as L-tartaric acid cocrystal Pattern A; for Bulk (XRPD) / Bulk (HPLC) purity, 316 nm: Solid state
Protocol: Bulk stability of (S)-4-((2-methoxyethyl)(4-(5,6,7,8-tetrahydro-1,8-naphthyridin-2-yl)butyl)amino)-2-(quinazolin-4-ylamino)butanoic acid L-tartaric acid cocrystal Pattern A was evaluated at 25° C./92.5% RH in an open container, at 40° C./75% RH in an open container, and at 60° C. in a closed container over 1 week and 4 weeks.
However, it became deliquescent after being stressed at 25° C./92.5% RH in an open container and at 40° C./75% RH in an open container after 1 week.

[5] = Dry grinding; settings: ground manually with mortar and pestle for 3 min
Protocol: as §1, with “ground manually” for “compressed for 5 minutes under 2 MPa, 5 MPa and 10 MPa”, “mortar and a pestle for 3 min.” for “hydraulic press.”

[6] = 10% relative humidity at 25° C.
[7] = 20% relative humidity at 25° C.
[8] = 30% relative humidity at 25° C.
[9] = 40% relative humidity at 25° C.
[10] = 50% relative humidity at 25° C.
[11] = 60% relative humidity at 25° C.
[12] = 70% relative humidity at 25° C.
[13] = 80% relative humidity at 25° C.
[14] = 90% relative humidity at 25° C.
[15] = 95% relative humidity at 25° C.
[16] = FaSSGF (fasted state simulated gastric fluid), pH 1.6, fassgf or other biorelevant, FaSSGF, pH 1.6, 37° C.
[17] = FeSSIF-v1 (fed state simulated intestinal fluid), pH 5, fessif, FeSSIF-v1, pH 5.0, 37° C.
[18] = pH 1.2 HCl buffer, pH 1.2, simulated gastric fluid
[19] = pH 4.5 acetate buffer (50 mM), pH 4.5, aqueous buffer
[20] = pH 6.8 phosphate buffer (50 mM), 37° C.
[21] = 40° C./75% RH, open container, 4 weeks
[22] = 60° C., closed container, 4 weeks, listed as L-Tartaric acid cocrystal Pattern A, hydrate

- 1st desorp. Weight % change ([1]; 0% relative humidity at 25° C.): 0.0%
- 2nd sorp. Weight % change ([1]; 0% relative humidity at 25° C.): 0.0%
- 1st desorp. Weight % change [1, 6]: 5.2%
- 2nd sorp. Weight % change [1, 6]: 4.7%
- 1st desorp. Weight % change [1, 7]: 7.4%
- 2nd sorp. Weight % change [1, 7]: 7.1%
- 1st desorp. Weight % change [1, 8]: 8.3%
- 2nd sorp. Weight % change [1, 8]: 8.0%
- 1st desorp. Weight % change [1, 9]: 8.9%
- 1st sorp. Weight % change [1, 9]: 8.5%
- 2nd desorp. Weight % change [1, 9]: 8.9%
- 2nd sorp. Weight % change [1, 9]: 8.7%
- 1st desorp. Weight % change [1, 10]: 9.4%
- 1st sorp. Weight % change [1, 10]: 9.0%
- 2nd desorp. Weight % change [1, 10]: 9.4%
- 2nd sorp. Weight % change [1, 10]: 9.2%
- 1st desorp. Weight % change [1, 11]: 9.8%
- 1st sorp. Weight % change [1, 11]: 9.6%
- 2nd desorp. Weight % change [1, 11]: 9.9%
- 2nd sorp. Weight % change [1, 11]: 9.7%
- 1st desorp. Weight % change [1, 12]: 10.4%
- 1st sorp. Weight % change [1, 12]: 10.1%
- 2nd desorp. Weight % change [1, 12]: 10.4%
- 2nd sorp. Weight % change [1, 12]: 10.2%
- 1st desorp. Weight % change [1, 13]: 11.1%
- 1st sorp. Weight % change [1, 13]: 10.7%
- 2nd desorp. Weight % change [1, 13]: 11.1%
- 2nd sorp. Weight % change [1, 13]: 10.9%
- 1st desorp. Weight % change [1, 14]: 12.6%
- 1st sorp. Weight % change [1, 14]: 12.2%
- 2nd desorp. Weight % change [1, 14]: 12.6%
- 2nd sorp. Weight % change [1, 14]: 12.1%
- 1st desorp. Weight % change [1, 15]: 18.7%
- 1st sorp. Weight % change [1, 15]: 18.7%
- 2nd desorp. Weight % change [1, 15]: 16.1%
- 2nd sorp. Weight % change [1, 15]: 16.1%
- XRPD following the DVS experiments ([1]; after cycle 40-95-0-95-40% RH, 25° C.): no form change
- hygroscopicity ([1]; at 70% RH and below, 25° C.): slightly hygroscopic
- water uptake ([1]; from 40% RH to 70% RH, 25° C.): about 1.6%
- water uptake ([1]; from 80% RH to 95% RH, 25° C.): about 8.0%
- behaviour at low humidity ([1]; in 10% RH and below, 25° C.): dehydrated
- hygroscopicity ([1]; in 80% RH and above, 25° C.): moderately hygroscopic
- water loss on dehydration ([1]; relative humidity below 10% RH, water absorbed back at 10% RH and above): about 5%
- solubility at 2 h [2, 16]: 206 mg/mL (≈ 419 mM)
- solubility at 24 h [2, 16]: 224 mg/mL (≈ 455 mM)
- pH of supernatant at 24 h ([2]; FaSSGF, pH 1.6, 37° C.): (1.6)
- Solubility (mg/ mL) 2 h ([2]; FaSSIF-v1, pH 6.5, 37° C.): 84.1 mg/mL (≈ 171 mM)
- Solubility (mg/ mL) 24 h ([2]; FaSSIF-v1, pH 6.5, 37° C.): 63.2 mg/mL (≈ 128 mM)
- pH of supernatant at 24 h ([2]; FaSSIF-v1, pH 6.5, 37° C.): (6.6)
- solubility at 2 h [2, 17]: 203 mg/mL (≈ 413 mM)
- solubility at 24 h [2, 17]: 217 mg/mL (≈ 440 mM)
- pH of supernatant at 24 h ([2]; FeSSIF-v1, pH 5.0, 37° C.): (5.0)
- pH of supernatant at 24 h ([2]; Water, 37° C.): (3.2)
- pH of supernatant at 24 h ([2]; pH 1.2 HCl buffer, 37° C.): (1.4)
- solubility at 2 h [2, 18]: 215 mg/mL (≈ 436 mM)
- solubility at 24 h [2, 18]: 222 mg/mL (≈ 451 mM)
- pH of supernatant at 24 h ([2]; pH 4.5 acetate buffer (50 mM), 37° C.): (4.4)
- solubility at 2 h [2, 19]: 214 mg/mL (≈ 435 mM)
- solubility at 24 h [2, 19]: 220 mg/mL (≈ 448 mM)
- Solubility (mg/ mL) 2 h [2, 20]: 28.4 mg/mL (≈ 57.7 mM)
- Solubility (mg/ mL) 24 h [2, 20]: 56.4 mg/mL (≈ 114 mM)
- pH of supernatant at 24 h [2, 20]: (6.8)
- solubility at 2 h ([2]; water): 207 mg/mL (≈ 421 mM)
- solubility at 24 h ([2]; water): 218 mg/mL (≈ 442 mM)
- degree of crystallinity after compression (XRPD) ([3]; 2 MPa, 5 MPa and 10 MPa): slight decrease in crystallinity
- form change after compression (XRPD) ([3]; 2 MPa, 5 MPa and 10 MPa): no form change
- XRPD after compression ([3]; 2 MPa): Pattern A
- XRPD after compression ([3]; 5 MPa): Pattern A
- XRPD after compression ([3]; 10 MPa): Pattern A
- purity decrease ([4]; 25° C./92.5% RH in an open container, 4 weeks): 0.9%
- physical form after stress ([4]; 25° C./92.5% RH open, 40° C./75% RH open and 60° C. closed container, four weeks): remained the same form
- physical stability ([4]; 25° C./92.5% RH open, 40° C./75% RH open and 60° C. closed container, over 4 weeks): physically stable
- purity decrease ([4]; 60° C. in a closed container, 4 weeks): 0.9%
- Bulk (XRPD) ([4]; 25° C./92.5% RH, open container, 1 week): No form change
- Bulk (HPLC) purity, 316 nm ([4]; 25° C./92.5% RH, open container, 1 week, listed as L-Tartaric acid cocrystal Pattern A, hydrate): 99.2%
- Bulk (XRPD) ([4]; 25° C./92.5% RH, open container, 4 weeks): No form change
- Bulk (HPLC) purity, 316 nm ([4]; 25° C./92.5% RH, open container, 4 weeks, listed as L-Tartaric acid cocrystal Pattern A, hydrate): 98.5%
- Bulk (XRPD) ([4]; 40° C./75% RH, open container, 1 week): No form change
- Bulk (HPLC) purity, 316 nm ([4]; 40° C./75% RH, open container, 1 week, listed as L-Tartaric acid cocrystal Pattern A, hydrate): 98.9%
- Bulk (HPLC) purity, 316 nm [4, 21]: 97.3%
- Bulk (XRPD) [4, 21]: No form change
- Bulk (XRPD) ([4]; 60° C., closed container, 1 week): No form change
- Bulk (HPLC) purity, 316 nm ([4]; 60° C., closed container, 1 week, listed as L-Tartaric acid cocrystal Pattern A, hydrate): 99.1%
- Bulk (HPLC) purity, 316 nm [4, 22]: 98.5%
- Bulk (XRPD) [4, 22]: No form change
- stability under stress conditions ([4]; open container, 25° C. and 92.5% relative humidity and 40° C. and 75% RH, up to four weeks): stable
- bulk stability relative to the phosphate salt ([4]; various temperatures and relative humidities (BS1, BS2, BS3)): higher stability
- degree of crystallinity after dry grinding (XRPD) [5]: no obvious change in crystallinity
- form change after dry grinding (XRPD) [5]: No form change
SMILES: COCCN(CCCCc1ccc2c(n1)NCCC2)CC[C@H](Nc1ncnc2ccccc12)C(=O)O [Pattern A, (S)-4-((2-methoxyethyl)(4-(5,6,7,8-tetrahydro-1,8-naphthyridin-2-yl)butyl)amino)-2-(quinazolin-4-ylamino)butanoic acid]
